# In paper PMC8206213, “An L-2-hydroxyglutarate biosensor based on specific transcriptional regulator LhgR” (Nature Communications, 2021):
# Experiments:
# LHGFR0N3C [1] = system: T1, LHGFR0N3C; assay: Emission ratio of sensor in living carbon-starved E. coli BL21(DE3) versus exogenous L-2-HG (100 nM to 10 mM) at 60 min, 37 °C.; assay type: cell-based; details: read-out: apparent Kd of LHGFR0N3C expressed in E. coli BL21(DE3); SD, n = 3
# T1 construct: FRET sensor: LhgR truncated by three C-terminal amino acids between mTFP (N-terminus) and Venus (C-terminus)
# Description: E. coli BL21(DE3) strains harboring either pETDuet-LHGFR0N3C, pETDuet-LHGFR0N7C, or pETDuet-LHGFR3N7C were grown to an OD600 of 0.6 in LB medium at 37 °C, after which the cells were induced overnight in the presence of 1 mM IPTG at 16 °C.
# To characterize the sensitivity and specificity of LHGFR expressed in E. coli BL21(DE3), 90 μL cell suspensions following 8 h carbon starvation were mixed with 10 μL increasing concentrations of L-2-HG or other compounds, and then added into a black 96-well plate (total 100 μL/per well), the fluorescence intensities were determined using an EnSight microplate reader (PerkinElmer, USA) and the following instrument settings: excitation at 430 nm, emission at 485 nm (mTFP) and 528 nm (Venus), time intervals of 5 min, the temperature at 37 °C, and shake at 180 rpm. […] In order to analyze functions of CsiD and LhgO in endogenous L-2-HG anabolism and catabolism during carbon starvation, pETDuet-LHGFR0N3C, pETDuet-LHGFR0N7C, or pETDuet-LHGFR3N7C was transferred into E. coli MG1655(DE3) and its variants, and the assays were performed using the same procedure.
# LHGFR0N3C [2] = biological target: T1, LHGFR0N3C; assay: FRET titration of purified sensor with L-2-HG (10 nM to 2 mM) added to filtered bacterial culture medium, sensor in 50 mM Tris-HCl pH 7.4 mixed 3:1, Venus/mTFP emission ratio.; assay type: binding; details: SD, n = 3
# Description: (§1) Purified L-2-HG biosensors and different compounds were diluted by 50 mM Tris-HCl buffer (pH 7.4), mixed together in a black 96-well plate at a volume ratio of 3:1, and the fluorescence intensities were measured using an EnSight microplate reader (PerkinElmer, USA) with excitation at 430 nm, emission at 485 nm (mTFP) and 528 nm (Venus). The dose-response curves were fitted by OriginPro 2016 software (OriginLab) according to the following formula:1 R=Rmax+Rmin−Rmax/1+([L-2-HG]/Kd)^p where R, Rmin, and Rmax refer to the emission ratio of Venus to mTFP, ratio in the absence of L-2-HG, and ratio at saturation with L-2-HG, respectively. […] Emission spectra were recorded at 430 nm excitation, in steps of 2 nm. Excitation spectra were recorded using emission at 550 nm, excitation from 380 to 535 nm in steps of 2 nm.
# (§2) In order to test the ability of LHGFR for quantitative analysis L-2-HG in different biological samples, purified LHGFR was diluted by 50 mM Tris-HCl (pH 7.4), while varying concentrations of L-2-HG were added into the serum and urine of a healthy adult and bacteria culture medium and filtered through a 0.22 μm filter, respectively. […] The mixtures of purified LHGFR and L-2-HG in different biological samples were then incubated in a black 96-well plate at a volume ratio of 3:1, and the emission ratios were determined using an EnSight microplate reader. […]
# LHGFR0N7C [3] = biological target: T2, LHGFR0N7C; assay: as above; assay type: binding; details: SD, n = 3
# T2 construct: FRET sensor: LhgR truncated by seven C-terminal amino acids between mTFP (N-terminus) and Venus (C-terminus)
# Description: as §1, §2
# LHGFR0N3C [4] = biological target: T1, LHGFR0N3C; assay: FRET titration of purified sensor with L-2-HG in 50 mM Tris-HCl pH 7.4, Venus/mTFP emission ratio (excitation 430 nm, emission 528/485 nm), Hill-type fit.; assay type: binding; details: SD, n = 3; read-out: apparent dissociation constant (Kd)
# Description: (§3) Purified L-2-HG biosensors and different compounds were diluted by 50 mM Tris-HCl buffer (pH 7.4), mixed together in a black 96-well plate at a volume ratio of 3:1, and the fluorescence intensities were measured using an EnSight microplate reader (PerkinElmer, USA) with excitation at 430 nm, emission at 485 nm (mTFP) and 528 nm (Venus). The dose-response curves were fitted by OriginPro 2016 software (OriginLab) according to the following formula:1 R=Rmax+Rmin−Rmax/1+([L-2-HG]/Kd)^p where R, Rmin, and Rmax refer to the emission ratio of Venus to mTFP, ratio in the absence of L-2-HG, and ratio at saturation with L-2-HG, respectively. The [L-2-HG], Kd, and p refer to the L-2-HG concentration, apparent dissociation constant, and Hill slope, respectively. Emission spectra were recorded at 430 nm excitation, in steps of 2 nm. Excitation spectra were recorded using emission at 550 nm, excitation from 380 to 535 nm in steps of 2 nm.
# (§4) Fig. 3 Design and optimization of the LHGFR. a Schematic representation of the predicted conformational change of LhgR-based L-2-HG biosensor LHGFR in the absence or presence of L-2-HG. […] The emission ratio of Venus to mTFP increased (430 nm excitation) after L-2-HG binding. c Heap map of the truncating the N-terminal and C-terminal amino acids of LhgR to ∆Rmax. […] The emission ratio changes of both biosensors were measured in the presence of 240 μM D-lactate, L-lactate, L-2-HG, D-2-HG, or different intermediates of the TCA cycle and L-lysine catabolism. g, h Reversal of L-2-HG binding with LHGFR by conversion of L-2-HG to 2-KG. […] All data shown are means ± s.d. (n = 3 independent experiments).
# (§5) Supplementary Figure 6 Dose-response curves of purified LHGFR variants truncated three to seven C-terminal amino acids in LhgR for L-2-HG. Dose-response curves of LHGFR0N3C […]
# (§6) concentrations (10 nM to 2 mM) of L-2-HG were indicated. The maximum ratio change (∆Rmax), apparent dissociation constant (Kd), and R2 were shown in each figure. All data shown are means ± s.d. (n = 3 independent experiments). Source data are provided as a […]
# LHGFR0N7C [5] = biological target: T2, LHGFR0N7C; assay: as above; assay type: binding; details: SD, n = 3; read-out: apparent dissociation constant (Kd)
# Description: as §3, §4, §5, §6
# LHGFR0N0C = biological target: T3, LHGFR0N0C; assay: as above; assay type: binding; details: SD, n = 3; read-out: apparent dissociation constant (Kd)
# T3 construct: FRET sensor: full-length LhgR between mTFP (N-terminus) and Venus (C-terminus); pETDuet-1, Ni-chelating purification
# Description: as §3, §4, §5, §6
# LHGFR0N3C [6] = biological target: T1, LHGFR0N3C; assay: FRET titration of purified sensor with L-2-HG (10 nM to 2 mM) added to filtered human serum, sensor in 50 mM Tris-HCl pH 7.4 mixed 3:1, Venus/mTFP emission ratio.; assay type: binding; details: SD, n = 3
# Description: as §1, §2
# LHGFR0N7C [7] = biological target: T2, LHGFR0N7C; assay: as above; assay type: binding; details: SD, n = 3
# Description: as §1, §2
# LHGFR0N3C [8] = system: T1, LHGFR0N3C; assay: Emission ratio of cytosolic sensor in HEK293FT cells permeabilized with 10 uM digitonin versus L-2-HG (10 nM to 10 mM) in Hank's balanced salt solution with 20 mM HEPES.; assay type: cell-based; details: read-out: apparent Kd of LHGFR0N3C expressed in HEK293FT cells; SD, n = 3
# Description: To characterize the sensitivity and specificity of LHGFR expressed in HEK293FT cells, cells were trypsinized 48 h following transfection and suspended in 1× Hank’s balanced salt solution supplemented with 20 mM HEPES. […] Digitonin at a concentration of 10 μM was used to induce cell permeabilization and deplete intracellular L-2-HG for in vivo response curves construction. Then, the fluorescence intensities were determined by a SpectraMax i3 fluorescence plate reader (Molecular Devices, USA) with excitation at 430 nm and emission at 485 nm (mTFP) and 528 nm (Venus). Basal L-2-HG concentration in HEK293FT cells under physiological conditions was determined by substituting the emission ratios of non-permeabilized HEK293FT cells into the calibrated in vivo response curves.
# LHGFR0N3C [9] = biological target: T1, LHGFR0N3C; assay: FRET titration of purified sensor with L-2-HG (10 nM to 2 mM) added to human urine diluted with an equal volume of 50 mM Tris-HCl pH 7.4, mixed 3:1, Venus/mTFP emission ratio.; assay type: binding; details: SD, n = 3
# Description: as §1, §2
# LHGFR0N7C [10] = biological target: T2, LHGFR0N7C; assay: as above; assay type: binding; details: SD, n = 3
# Description: as §1, §2
smiles,measurement,setting,value
"O=C(O)CC[C@H](O)C(=O)O [L-2-HG, L-2-hydroxyglutarate]",Kd,LHGFR0N3C [1],892 µM
same,Kd,LHGFR0N3C [2],36.9 µM
same,Kd,LHGFR0N7C [3],6.65 µM
same,Kd,LHGFR0N3C [4],29.3 µM
same,Kd,LHGFR0N7C [5],7.22 µM
same,Kd,LHGFR0N0C,2.74 µM
same,Kd,LHGFR0N3C [6],27.8 µM
same,Kd,LHGFR0N7C [7],8.35 µM
same,Kd,LHGFR0N3C [8],43.8 µM
same,Kd,LHGFR0N3C [9],29.5 µM
same,Kd,LHGFR0N7C [10],7.77 µM
